From BindingDB's records for doi:10.1124/jpet.104.066761 (National Institutes of Health, 2004)
Square brackets hold non-standard residues; d marks the D form. Peptide text beside a SMILES is read from it. Nle = CCCC[C@H](N)C(=O)O; βAla = NCCC(=O)O

Experiments:
[1] = molecular target: Gastrin-releasing peptide receptor (Homo sapiens) (UniProt P30550)
Neuromedin-B receptor = Neuromedin-B receptor (Homo sapiens, UniProt P28336)
[2] = molecular target: T1, Bombesin receptor subtype-3 (Homo sapiens, UniProt P32247)
T1 sequence (P32247 whole entry): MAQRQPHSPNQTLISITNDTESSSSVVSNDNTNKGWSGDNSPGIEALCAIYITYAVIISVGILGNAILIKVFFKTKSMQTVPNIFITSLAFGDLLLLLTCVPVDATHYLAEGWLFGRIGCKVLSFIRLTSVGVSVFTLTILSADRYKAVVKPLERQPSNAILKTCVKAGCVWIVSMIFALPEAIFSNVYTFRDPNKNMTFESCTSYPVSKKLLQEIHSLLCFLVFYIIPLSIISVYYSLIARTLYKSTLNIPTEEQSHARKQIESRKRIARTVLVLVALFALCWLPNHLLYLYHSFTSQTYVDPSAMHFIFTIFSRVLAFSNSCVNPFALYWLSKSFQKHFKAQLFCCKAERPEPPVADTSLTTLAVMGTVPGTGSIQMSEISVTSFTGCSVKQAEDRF

[3] = molecular target: Gastrin-releasing peptide receptor (Homo sapiens) (UniProt P30550); remark: listed apart in the source

Sequence of Gastrin-releasing peptide receptor (Homo sapiens) (P30550 whole entry, looked up): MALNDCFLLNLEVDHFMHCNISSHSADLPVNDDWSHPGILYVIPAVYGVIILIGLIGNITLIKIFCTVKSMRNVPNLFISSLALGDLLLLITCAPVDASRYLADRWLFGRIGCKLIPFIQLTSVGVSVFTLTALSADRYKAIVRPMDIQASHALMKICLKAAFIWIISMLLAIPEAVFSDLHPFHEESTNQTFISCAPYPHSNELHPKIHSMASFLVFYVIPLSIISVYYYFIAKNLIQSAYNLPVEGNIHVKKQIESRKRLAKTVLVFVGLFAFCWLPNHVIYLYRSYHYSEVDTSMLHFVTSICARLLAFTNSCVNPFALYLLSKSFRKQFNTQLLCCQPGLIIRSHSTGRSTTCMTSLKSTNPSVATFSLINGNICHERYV
Sequence of Neuromedin-B receptor (P28336 whole entry): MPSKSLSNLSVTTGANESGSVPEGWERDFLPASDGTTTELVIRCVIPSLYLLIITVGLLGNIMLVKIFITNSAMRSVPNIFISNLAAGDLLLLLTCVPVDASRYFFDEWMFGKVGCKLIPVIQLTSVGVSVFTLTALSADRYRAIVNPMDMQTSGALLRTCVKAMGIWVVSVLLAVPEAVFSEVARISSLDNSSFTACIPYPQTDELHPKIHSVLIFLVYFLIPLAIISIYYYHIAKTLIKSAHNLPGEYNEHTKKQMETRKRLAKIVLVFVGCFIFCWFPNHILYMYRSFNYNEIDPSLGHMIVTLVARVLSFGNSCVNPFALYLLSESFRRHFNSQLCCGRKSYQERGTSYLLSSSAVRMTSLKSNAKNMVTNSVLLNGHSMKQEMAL

Ki [1] [nM] | Ki (Neuromedin-B receptor) [nM] | Ki [2] [nM] | Ki [3] [nM] | SMILES
2510 | > 10000 | 107 | – | CCCC[C@H](NC(=O)[C@H](Cc1ccccc1)NC(=O)[C@H](Cc1cnc[nH]1)NC(=O)C[C@H](NC(=O)[C@@H](NC(=O)[C@H](C)NC(=O)[C@H](Cc1c[nH]c2ccccc12)NC(=O)[C@H](CCC(N)=O)NC(=O)[C@H](N)Cc1ccc(O)cc1)C(C)C)c1cccc(Cl)c1)C(N)=O [NSC_0]
398 | 5890 | 85 | – | CCCC[C@H](NC(=O)[C@H](Cc1ccccc1)NC(=O)[C@H](Cc1cnc[nH]1)NC(=O)C[C@H](NC(=O)[C@@H](NC(=O)[C@H](C)NC(=O)[C@H](Cc1c[nH]c2ccccc12)NC(=O)[C@H](CCC(N)=O)NC(=O)[C@H](N)Cc1ccc(O)cc1)C(C)C)c1ccccc1Cl)C(N)=O [NSC_0]
1 | 43 | 2.3 | – | CCCC[C@H](NC(=O)[C@H](Cc1ccccc1)NC(=O)[C@H](Cc1cnc[nH]1)NC(=O)[C@@H](N)CNC(=O)[C@@H](NC(=O)[C@H](C)NC(=O)[C@H](Cc1c[nH]c2ccccc12)NC(=O)[C@H](CCC(N)=O)NC(=O)[C@H](N)Cc1ccc(O)cc1)C(C)C)C(N)=O [NSC_0]
3.1 | 55 | 12.3 | – | CCCC[C@H](NC(=O)[C@H](Cc1ccccc1)NC(=O)[C@H](Cc1cnc[nH]1)NC(=O)[C@H](CNC(=O)[C@@H](NC(=O)[C@H](C)NC(=O)[C@H](Cc1c[nH]c2ccccc12)NC(=O)[C@H](CCC(N)=O)NC(=O)[C@H](N)Cc1ccc(O)cc1)C(C)C)NC(=O)c1ccccc1)C(N)=O [NSC_0]
1.7 | 89 | 15.8 | – | CCCC[C@H](NC(=O)[C@H](Cc1ccccc1)NC(=O)[C@H](Cc1cnc[nH]1)NC(=O)[C@H](CNC(=O)[C@@H](NC(=O)[C@H](C)NC(=O)[C@H](Cc1c[nH]c2ccccc12)NC(=O)[C@H](CCC(N)=O)NC(=O)[C@H](N)Cc1ccc(O)cc1)C(C)C)NC(C)=O)C(N)=O [NSC_0]
– | 5.9 | 0.82 | – | CCCC[C@H](NC(=O)[C@H](Cc1ccccc1)NC(=O)[C@H](Cc1cnc[nH]1)NC(=O)CCNC(=O)[C@@H](NC(=O)[C@H](C)NC(=O)[C@H](Cc1c[nH]c2ccccc12)NC(=O)[C@H](CCC(N)=O)NC(=O)[C@H](N)Cc1ccc(O)cc1)C(C)C)C(N)=O [NSC_0] (H-[dY]QWAV[βAla]HF[Nle]-NH2)

Further lines, the compound ahead of its results:

SMILES | Ki [1] [nM] | Ki (Neuromedin-B receptor) [nM] | Ki [2] [nM] | Ki [3] [nM]
CCCC[C@H](NC(=O)[C@H](Cc1ccccc1)NC(=O)[C@H](Cc1cnc[nH]1)NC(=O)C[C@H](NC(=O)[C@@H](NC(=O)[C@H](C)NC(=O)[C@H](Cc1c[nH]c2ccccc12)NC(=O)[C@H](CCC(N)=O)NC(=O)[C@H](N)Cc1ccc(O)cc1)C(C)C)c1ccccc1)C(N)=O [CAS_0] | 110 | – | – | –
CSCC[C@H](NC(=O)[C@H](Cc1ccccc1)NC(=O)[C@H](Cc1cnc[nH]1)NC(=O)CNC(=O)[C@@H](NC(=O)[C@H](C)NC(=O)[C@H](Cc1c[nH]c2ccccc12)NC(=O)[C@H](CC(C)C)NC(=O)[C@H](CC(N)=O)NC(=O)CN)[C@@H](C)O)C(N)=O [NMB] | – | 0.55 | > 10000 | –
CC(C)[C@H](NC(=O)[C@H](C)NC(=O)[C@H](Cc1c[nH]c2ccccc12)NC(=O)[C@H](CCC(N)=O)NC(=O)[C@H](N)Cc1ccc(O)cc1)C(=O)NCCC(=O)N[C@@H](Cc1cnc[nH]1)C(=O)N[C@@H](Cc1ccccc1)C(=O)NC[C@H](N)C(N)=O [NSC_0] | 85 | > 10000 | 2400 | –
CCCC[C@H](NC(=O)[C@H](Cc1ccccc1)NC(=O)[C@H](Cc1c[nH]cn1)NC(=O)C[C@@H](NC(=O)[C@@H](NC(=O)[C@H](C)NC(=O)[C@H](Cc1c[nH]c2ccccc12)NC(=O)[C@H](CCC(N)=O)NC(=O)[C@H](N)Cc1ccc(O)cc1)C(C)C)c1ccc(Cl)cc1)C(N)=O [NSC_0] | 1860 | 7200 | 8.2 | –
CCCC[C@H](NC(=O)[C@H](Cc1ccccc1)NC(=O)[C@H](Cc1c[nH]cn1)NC(=O)C[C@@H](NC(=O)[C@@H](NC(=O)[C@H](C)NC(=O)[C@H](Cc1c[nH]c2ccccc12)NC(=O)[C@H](CCC(N)=O)NC(=O)[C@H](N)Cc1ccc(O)cc1)C(C)C)c1ccccc1)C(N)=O [NSC_0] | 151 | 2400 | 2.8 | –
CCCC[C@H](NC(=O)[C@H](Cc1ccccc1)NC(=O)[C@H](Cc1cnc[nH]1)NC(=O)C[C@@H](NC(=O)[C@@H](NC(=O)[C@H](C)NC(=O)[C@H](Cc1c[nH]c2ccccc12)NC(=O)[C@H](CCC(N)=O)NC(=O)[C@H](N)Cc1ccc(O)cc1)C(C)C)c1cccc(Cl)c1)C(N)=O [NSC_0] | 110 | 831 | 15.8 | –
CCCC[C@H](NC(=O)[C@H](Cc1ccccc1)NC(=O)[C@H](Cc1cnc[nH]1)NC(=O)C[C@@H](NC(=O)[C@@H](NC(=O)[C@H](C)NC(=O)[C@H](Cc1c[nH]c2ccccc12)NC(=O)[C@H](CCC(N)=O)NC(=O)[C@H](N)Cc1ccc(O)cc1)C(C)C)c1ccccc1Cl)C(N)=O [NSC_0] | 229 | 6920 | 24 | –
CCCC[C@H](NC(=O)[C@H](Cc1ccccc1)NC(=O)[C@H](Cc1cnc[nH]1)NC(=O)C[C@H](NC(=O)[C@@H](NC(=O)[C@H](C)NC(=O)[C@H](Cc1c[nH]c2ccccc12)NC(=O)[C@H](CCC(N)=O)NC(=O)[C@H](N)Cc1ccc(O)cc1)C(C)C)C(=O)NCc1ccccc1)C(N)=O [NSC_0] | – | 646 | 708 | 397
CCCC[C@H](NC(=O)[C@H](Cc1ccccc1)NC(=O)[C@H](Cc1cnc[nH]1)NC(=O)C[C@H](NC(=O)[C@@H](NC(=O)[C@H](C)NC(=O)[C@H](Cc1c[nH]c2ccccc12)NC(=O)[C@H](CCC(N)=O)NC(=O)[C@H](N)Cc1ccc(O)cc1)C(C)C)C(=O)O)C(N)=O [NSC_0] | 396 | 427 | 490 | –
CCCC[C@H](NC(=O)[C@H](Cc1ccccc1)NC(=O)[C@H](Cc1cnc[nH]1)NC(=O)C[C@H](NC(=O)[C@@H](NC(=O)[C@H](C)NC(=O)[C@H](Cc1c[nH]c2ccccc12)NC(=O)[C@H](CCC(N)=O)NC(=O)[C@H](N)Cc1ccc(O)cc1)C(C)C)c1ccc(Cl)cc1)C(N)=O [NSC_0] | 741 | 1950 | 776 | –
